Reference: US20090216117A1, “NOVEL METHOD OF USING TRIACETIN AND AUXILIARY AGENT FOR ULTRASONIC DIAGNOSTIC EXAMINATION” (SHINSHU UNIVERSITY, priority 2005, published 2009)
“Also recorded” adds a separate entry of the source.

Columns and labels:
[1] = Test 1: viscosity comparison with Brookfield viscometer; format: physicochemical
Protocol: Using water (ion-exchanged water), an aqueous solution of triacetin, and an aqueous solution of sodium alginate which is a typical viscosity enhancing polysaccharide (KIMICA Corporation, Grade: IL-2), viscosity comparison was made. Viscosity was measured with a Brookfield viscometer (product of TOKIMEC INC., Model BM).

Beagles [2] = assay: Test 2: Pylorus occlusion test (gastric emptying, Evans blue recovery from duodenum); format: in vivo; conditions: for suppression of quantitative gastric emptying in comparison with physiological saline: 50 mL test fluid into stomach; for percent emptied: after 50 minutes, almost all physiological saline emptied by about 30 minutes
Protocol: To 10 mL of triacetin (Wako Pure Chemical Industries, Ltd.), 40 mL of water was added to make a total volume of 50 mL, thereby making test fluid A.
Ten milliliters of olive oil (Wako Pure Chemical Industries, Ltd.) and 10 mL of propylene glycol were mixed and water was added to make a total volume of 50 mL, thereby making test fluid B.
Half a gram of stearic acid (Wako Pure Chemical Industries, Ltd.) and 20 mL of propylene glycol were mixed and water was added to make a total volume of 50 mL, thereby making test fluid C.
Beagles each weighing about 10 kg were given general anesthesia with an injection of Nembutal (Dainippon Pharmaceutical Co., Ltd.) and following middle incision, tubes were inserted into the body of stomach and the duodenum as shown in FIG. 8 and with each tube being passed subcutaneously through the flank to the back, the dogs received a preliminary invasive operation for an experiment under an unanesthetized condition.
Starting six days after the operation when there were no longer the effects of anesthesia and those of the operative invasion and the general condition had recovered, the study of the sample fluids of interest was started. To be more specific, it is well known that the gastric emptying capability is suppressed under an anesthetized condition, so in the Example under consideration, in order to eliminate that effect and also to determine data for a more normal state, an experiment was conducted under a chronic unanesthetized condition.
To each test fluid, 5 mg of Evans blue (Wako Pure Chemical Industries, Ltd.) was added and 50 mL of the mixture was injected into the stomach of each beagle through the tube indicated by 1 in FIG. 8. Similarly, a tube was placed in the duodenum and the test fluid emptied from the stomach was recovered through the tube indicated by 2 in FIG. 8. At given time intervals, the emptied test fluid was recovered by suction (for one minute) through the tube left in place in the duodenum and the Evans blue contained in it was measured for absorbance (DU R640 SPECTRO PHOTOMETER, product of Beckman Inc.) at a wavelength of 605 nm, to thereby measure the concentration of Evans blue in the suctioned fluid; the amount of recovery was used to determine the gastric emptying rate.

[3] = Dissolution of triacetin in water; format: physicochemical; conditions: ordinary temperature
Source text: If the auxiliary agent for examination in ultrasonic imaging diagnosis is used in the state of an emulsion, the oil-water interface will reflect ultrasound and affect its propagation. […] For instance, triacetin described in the present invention can be dissolved in water in an amount of about 7% at ordinary temperature without forming an emulsion and this concentration is sufficient for suppressing gastric motility.

Beagles [4] = assay: Test 3: Measurement of gastric contractile motion by strain gage; format: in vivo
Protocol: Two hundred microliters of triacetin (Wako Pure Chemical Industries, Ltd.) was dissolved in distilled water to make a volume of 20 mL, thereby making test fluid D.
Four milliliters of olive oil (Wako Pure Chemical Industries, Ltd.) was dissolved in distilled water to make a volume of 20 mL, thereby making test fluid E.
Twenty milliliters of distilled water was used as control fluid F.
In order to measure muscular contraction with the strain gage, the submucosa was stretched so that the surface of the mucous membrane would not be incised and the strain gage was buried in the submucosa and sutured thereto, with the wound of incision being closed by a suture.
The tube and the strain gage were subcutaneously guided to the outside of the body from the flank to the back and the dogs received a preliminary invasive operation for an experiment under an unanesthetized condition.
Starting six days after the operation when there were no longer the effects of anesthesia and those of the operative invasion and the general condition had recovered, the study of the sample fluids of interest was started. […]
Note that signals from the strain gage were amplified (VC-11, NIHON KOHDEN) and then AD converted, with the resulting digital data being analyzed with Origin Version 6.5 (OriginLab Corporation). […]

Viscosity ([1]; 0.2% aqueous solution) | Viscosity ([1]; 1.0% aqueous solution) | Viscosity ([1]; 5.0% aqueous solution) | amount that can be dissolved in water without forming an emulsion [3] | Structure (SMILES) | viscosity enhancement as compared with sodium alginate ([1]; aqueous solutions) | time at which the emptied amount peaked (Beagles [2]; 50 mL test fluid A into stomach, physiological saline peaked at about 5 minutes) | pylorus occluding effect (Beagles [2]; 50 mL test fluid injected into stomach, unanesthetized beagles, physiological saline as comparison) | suppression of quantitative gastric emptying in comparison with physiological saline (Beagles [2]) | percent emptied (Beagles [2]) | change in amplitude and frequency of contractions (contractile motion of the stomach) (Beagles [4]; 20 μL/kg injected into stomach in phase III, fasted unanesthetized beagles) | duration of the suppression of contractile motion after injection (Beagles [4]; 20 μL/kg, change occurred immediately after the injection)
10.1 mPa · s | 10.8 mPa · s | 16.7 mPa · s | about 7% | CC(=O)OCC(COC(C)=O)OC(C)=O [Triacetin, triacetin] | considerably less effective in viscosity enhancement | 10 to 20 min | markedly effective in occluding the pylorus | obviously suppressed | about 5% | obvious suppression of the contractile motion; also recorded: decreased both the amplitude and frequency of contractions | about three
– | – | – | – | CCCCCCCCCCCCCCCCCC(=O)O [stearic acid, reference compound] | – | – | – | obvious suppression | about 10% | – | –
